# Patent US8674085B2, “2′-branched nucleosides and Flaviviridae mutation” (priority 2002, dated 2014)
# Tests used:
# [1] = system: HCV; settings: ribavirin alone; cited from earlier work
# [2] = system: BVDV strain I-N-dIns (wild type); experiment: microbe, parasite or virus in culture; assay type: cell-based, bovine viral diarrhea virus
# Protocol: (§1) To conduct the virus focus assay, MDBK cells were seeded onto 6-well plates containing 2×10^5 cells per well and grown at 37° C./5% CO2 for at least 5 hours before use. The test samples (culture supernatants combined with cell monolayers) were frozen/thawed twice, serially diluted by 10-fold in medium, and used to inoculate test cells in 6-well plates at 0.2 mL per well. The inoculum was removed after 1 hour of adsorption, and the cells were overlaid with 3 mL of 0.5% agarose in complete growth medium (1× DMEM (Cellgro), supplemented with 8% horse serum, penicillin, streptomycin, L-glutamine, sodium pyruvate, and 25 mM HEPES). After 3 days of incubation at 37° C./5% CO2, the plates were fixed for 1 hour with 3 mL of 7.4% formaldehyde in PBS, and washed with PBS. The cell monolayers were permeabilized with 1 mL of PBS-0.25% Triton X-100 per well for 10 minutes, and incubated with 0.5 mL of goat anti-BVDV antiserum (VMDR, Inc.; diluted 1:1000 in PBS-0.25% Triton X-100) for 1 hour. The antiserum was then removed, and cell monolayers were washed with PBS (twice for 15 min) and incubated with 0.5 mL of peroxidase-conjugated donkey anti-goat antibody (diluted 1:1000 in PBS-0.25% Triton X-100) for another 1 hour. After the antibody was removed, the cell monolayers were washed with PBS (twice for 15 min), and incubated with 0.5 mL of diaminobenzidine (DAB) peroxidase substrate solution (Vector Laboratories) at room temperature until virus foci become visible (approximately 15 minutes). All incubations were carried out with rocking. The staining was stopped by washing with water and the plates were allowed to air dry. Virus titers were calculated in FFU/mL, using the following equation: TFFU/mL=N×5×D; where T is a virus titer in FFU/mL; N is a number of foci per well; and D is a dilution factor for the corresponding virus sample.
# (§2) To conduct the virus yield reduction assay, MDBK cells were seeded onto 24-well plates (1×10^5 cells per well) and grown at 37° C./5% CO2 overnight. […] The virus titer in the cell culture was quantified by focus assay as described above. […]
# [3] = system: BVDV I-N-dIns β-D-2′-CH3-riboC-R (β-D-2′-CH3-riboC-resistant BVDV); experiment: BVDV virus yield reduction assay in de novo-infected MDBK cells; assay type: cell-based, bovine viral diarrhea virus
# Protocol: as §1
# To conduct the virus yield reduction assay, MDBK cells were seeded onto 24-well plates (1×10^5 cells per well) and grown at 37° C./5% CO2 overnight. Cells were infected with BVDV at a multiplicity of infection of 0.1. After 1-hour adsorption, the inoculum was removed, and cells were washed with PBS and then overlaid with 1 mL of fresh growth medium, containing serial 2-fold dilutions of the test compound (0-32 μM for β-D-2′-CH3-riboC and 0-800 IU/mL for Intron®A). After incubation at 37° C./5% CO2 for 48 hours, the plates were frozen/thawed at −70° C. twice to lyse the cell cultures. The virus titer in the cell culture was quantified by focus assay as described above. […] The EC50, EC90 and EC4-log values were derived by curve fitting using XLFit software.
# [4] = system: BVDV (strain I-N-dIns) in persistently infected MDBK cells; experiment: Passaging of persistently infected MDBK cells with 8 μM β-D-2′-CH3-riboC (isolation of resistant BVDV); assay type: cell-based, bovine viral diarrhea virus
# Protocol: (§3) Persistent BVDV infection was established in MDBK cell line (ATCC, Manassas, Va., Catalog #: CCL-22) by in vitro infection of naive cells with a noncytophatic (ncp) BVDV (strain I-N-dIns; Dr. R. Donis, U. of Nebraska, Lincoln, Nebr.). The multiplicity of infection (MOI) was 0.01. Cells were passaged twice per week (splitting ratio 1:15) until the stable high-level of infection (10^6-10^7 focus forming units (FFU) per mL) was achieved, as was determined by a focus assay. Next, the persistently infected cells were grown in 6-well culture plates with 8 μM or without β-D-2′-CH3-riboC (Idenix Pharmaceuticals). Cell cultures were passaged every three to four days by splitting with a ratio of 1:15 to 1:20. After eight passages, cell cultures grown in the presence of β-D-2′-CH3-riboC were expanded to T-75 culture flask, freeze/thawed twice, and used as a virus stock of β-D-2′-CH3-riboC-resistant BVDV for further characterization. The virus titers in cell cultures were monitored at the end of each passage by the virus focus assay.
# To conduct the virus focus assay, MDBK cells were seeded onto 6-well plates containing 2×10^5 cells per well and grown at 37° C./5% CO2 for at least 5 hours before use. The test samples (culture supernatants combined with cell monolayers) were frozen/thawed twice, serially diluted by 10-fold in medium, and used to inoculate test cells in 6-well plates at 0.2 mL per well. The inoculum was removed after 1 hour of adsorption, and the cells were overlaid with 3 mL of 0.5% agarose in complete growth medium (1× DMEM (Cellgro), supplemented with 8% horse serum, penicillin, streptomycin, L-glutamine, sodium pyruvate, and 25 mM HEPES). After 3 days of incubation at 37° C./5% CO2, the plates were fixed for 1 hour with 3 mL of 7.4% formaldehyde in PBS, and washed with PBS. […] Virus titers were calculated in FFU/mL, using the following equation: TFFU/mL=N×5×D; where T is a virus titer in FFU/mL; N is a number of foci per well; and D is a dilution factor for the corresponding virus sample. […]
# [5] = system: BVDV strain I-NADL; experiment: BVDV virus yield reduction assay; assay type: cell-based, bovine viral diarrhea virus; settings: cp
# Protocol: as §1, with “sample. […]” for “sample.”
# as §2
# [6] = system: BVDV (strain I-N-dIns) in persistently infected MDBK cells; experiment: Single or double treatment of persistently infected MDBK cells, virus titers by focus assay; assay type: cell-based, bovine viral diarrhea virus; settings: for log value of the BVDV titer: 0 IU/mL Interferon alpha-2b; for reduction of viral titers: single treatment, 7 days
# Protocol: as §3, with “After eight passages, cell cultures grown in the presence of β-D-2′-CH3-riboC were expanded to T-75 culture flask, freeze/thawed twice, and used as a virus stock of β-D-2′-CH3-riboC-resistant BVDV for further characterization.” left out
# as §1
# The effect of Intron A, alone or in combination with β-D-2′-CH3-riboC, on the wild type BVDV was further studied in the persistently infected MDBK cells. In one experimental setting, the virus titers were determined after 7 days (two passages) of single or double treatment with several inhibitor concentrations.
# [7] = Bovine viral diarrhea virus isolates and strains, MDBK, BVDV strain I-N-dIns β-D-2′-CH3-riboC-R, ncp, 48 hours
# [8] = Bovine viral diarrhea virus isolates and strains
compound,measurement,setting,value
"NC(=O)c1ncn([C@@H]2O[C@H](CO)[C@@H](O)[C@H]2O)n1 [Ribavirin, 1-β-D-ribofuranosyl-1-1,2,4-triazole-3-carboxamide]","serum amino transferase levels reduced to normal, share of patients",[1],40%
CC1(O)C(O)[C@@H](CO)O[C@H]1n1ccc(N)nc1=O (stereo partly drawn) [β-D-2′-CH3-riboC],EC4 log,"[2]; BVDV strain I-N-dIns, ncp, concentration reducing viral titer by 99.99%, 48 hours",7.14±1.26 μM
same,EC50,"[2]; Bovine viral diarrhea virus isolates and strains, MDBK, BVDV strain I-N-dIns, ncp, concentration reducing viral titer by 50%, 48 hours",0.59 ± 0.12 µM
same,virus titers,"[2]; at 16 μM, wild type virus, below the detection limit",< 10 FFU/mL
same,EC4 log,"[3]; BVDV strain I-N-dIns β-D-2′-CH3-riboC-R, ncp, 48 hours",>32 μM
same,EC50,[3]; [7],> 32 µM
same,EC90,[3]; [7],> 32 µM
same,fold more resistant to the inhibitor than the wild type virus,[3]; based on the EC50 values of the virus yield reduction assay,at least 54 fold
same,effect on the resistant virus yield,[3]; highest concentration tested (32 μM),no effect
same,virus titer plateau after reappearance of virus,[4]; additional passaging in the presence of the inhibitor (virus reappeared at passage 3 to 5),10^5 FFU/mL
same,virus detection in culture,[4]; after two passages,no longer detectable
same,difference in virus titers versus untreated culture,[4]; observed even after 28 days of treatment,~10 fold
same,EC50,[5]; [8],0.68 ± 0.08 µM
same,EC90,[5]; [8],1.73 ± 0.11 µM
same,EC4 log,[5],8.22 ± 0.05 μM
same,log value of the BVDV titer,"[6]; 2 μM β-D-2′-CH3-riboC, 7 days (two passages)",5.10 log
same,log value of the BVDV titer,"[6]; 4 μM β-D-2′-CH3-riboC, 7 days (two passages)",4.55 log
same,reduction of virus titer,"[6]; 8 μM β-D-2′-CH3-riboC alone, 7 days (two passages)",6.2 logs
same,log value of the BVDV titer,"[6]; 8 μM β-D-2′-CH3-riboC, 7 days (two passages)",0.40 log
same,reduction of viral titers,[6]; 2 μM β-D-2′-CH3-riboC,1.61 logs
same,reduction of viral titers,[6]; 4 μM β-D-2′-CH3-riboC,2.06 logs
